Earlier results, collected in US11541018B2 (priority 2016, dated 2023).

Key:
[1] = active agent (base)
[2] = active agent (base); remark: listed apart in the source

Water solubility [1]: 133 mg/mL
LogP [2]: 2.7
Substance: ropinole
